According to BigSolDB 2.1:

O=C(O)CCCCCCCCCCC(=O)O
solubility (mole fraction)
Settings	288.15 K	293.15 K	298.15 K	303.15 K	308.15 K	313.15 K	318.15 K	323.15 K	328.15 K
in acetic acid	0.00316	0.00434	0.00581	0.00776	0.0103	0.0136	0.0179	0.0235	0.0306
in acetone	0.00286	0.00402	0.00543	0.00757	0.00995	0.0133	0.0178	0.0238	0.0318
in ethanol	0.00793	0.0105	0.0138	0.0181	0.0236	0.0305	0.0394	0.0506	0.0648
in ethyl acetate	0.00115	0.00165	0.00231	0.00327	0.00461	0.00638	0.00879	0.0121	0.0165
